Measurements as given in US12509446B2, “FYN and VEGFR2 kinase inhibitors” (ROTTAPHARM BIOTECH S.R.L., priority 2019, dated 2025).
Where two headings read alike, the source gives them in different places.

Experiments:
NF-kB = assay: Gene reporter (GR) assay, NF-kB activation after TNFα in JB6 Cl 41-5a (P+) cells; assay type: cell-based, murine; design: key to Gene reporter (GR) inhibition, no effect: ne: no effect; conditions: for IC50: TNFα 2 ng/ml, non toxic concentrations, read-out: Gene reporter (GR) inhibition IC50
Description: To determine if the compounds of the invention were active also in a cellular model, a gene reporter assay was established in a cell line (JB6 Cl 41-5a (P+)) know to activate Fyn kinase via an inflammatory stimuli (TNFα). GR assay measures the activation of the nuclear transcription factor NF-kB, situated down-stream the Fyn activation pathway. Products active in this analysis has to penetrate in the cell and inhibit the activation pathway of NF-kB.
The murine epithelial cell line JB6 Cl 41-5a (P+) (ATCC® Cat. #CRL-2010) was stably transfected with the pGL4.32[luc2P/NFkB-RE/Hygro] vector (Promega). Clonal selection was achieved by limiting with 80 μg/ml Hygromycin B. The clones were tested for their response to TNFα stimulus.
JB6(P+) NFkB-RE-luc2P transfected cells were used for the analysis of NF-kB activity modulation, after TNFα stimulation, by Fyn-inhibitors.
Cells were pre-treated with the different compounds for 1 h and then stimulated with 2 ng/ml TNFα for 4 h. Each tested condition was analyzed in quadruplicate.
The luciferase analysis was performed with ONE-Glo™+ToxLuciferase Reporter and Cell Viability Assay kit (Promega).

ADAMTS-5 = assay: Gene expression in rat articular chondrocytes under IL-1β stimulation, ADAMTS-5; assay type: cell-based; design: key to ADAMTS-5 gene expression, no effect: ne: no effect; conditions: for IC50: Rattus norvegicus, Chondrocyte, 6 h incubation
Description: (§1) For gene expression analysis, 10 days after plating, the medium was changed and substituted with DMEM GlutaMAX I 0.4% to synchronize the cells. The cells were then co-treated in DMEM GlutaMAX I 0.4% with different concentrations of the test compounds and […] at a final concentration of 2 ng/ml for 6 h and 24 h. The test compound concentrations used have been chosen on the basis of the toxicity data.
(§2) At the end of the incubation, the supernatant was discarded, the cell were washed with cold PBS1X and scraped with 200 μl of RNA lysis buffer 1X (Nucleic Acid Purification Lysis Solution, Applied Biosystems).
(§3) Total RNA was purified using ABI Prism™ 6100 Nucleic Acid PrepStation (Applied Biosystems) following manufacturer's instructions.
(§4) Total RNA was retrotranscribed using the High-Capacity cDNA Archive Kit (Applied Biosystems-Thermo Fisher Scientific) following manufacturer's instructions.
(§5) The specific probes and primers for RealTime PCR were from Applied Biosystems (Thermo Fisher Scientific) as Assays-on-Demand™, while the probe and primers for the endogenous control 18S was a PDAR (Pre-Developed TaqMan® Assay Reagents—Applied Biosystems-Thermo Fisher Scientific).
(§6) The assays were designed to amplify target cDNA without amplifying genomic DNA.
(§7) Gene expression analysis for IL-1β, IL-6 and ADAMTS-5 were performed at 6 h incubation, while the gene expression analysis for MMP3, MMP13 and COX2 were performed at 24 h incubation.
(§8) For each compound the maximal concentration tested was dependent on the toxicity results obtained on primary rat chondrocytes.
(§9) The data analysis, with the normalisation on the amplified values for the 18S was done following the specific instruction of Applied Biosystems for the relative quantification of gene expression.

[1] = tested on: bovine nasal septum cartilage; assay: Inhibition of cartilage degradation (GAG release) induced by IL-1α in a bovine in vitro model; assay type: cell-based; conditions: Bos taurus, read-out: Bovine cartilage degradation induced by IL-1α, % inhibitory effect at max concentration
Description: Nasal septum cartilage was collected from an eight months-old male bovine in a local slaughterhouse.
Tissue was sprayed with ethanol 70% and immediately put in sterile PBS with Antibiotic-Antimycotic stabilized solution (PBS-AASS). It was cut in order to obtain small punches (diameter 2 mm, 1 mm-thick). washed with sterile PBS-AASS, the slices were transferred in a 96X well plate (one piece per well) in DMEM 10%+AASS. 48 h later the cartilage was stimulated in white DMEM+0.1% BSA+AASS with IL-1α […] in the absence or presence of the studied compounds.
The compounds concentration used in this analysis was chosen depending on the toxicity results obtained in rat primary chondrocytes at 48 h of incubation.
After 48 h stimulation, the culture medium was collected and stored at −80° C. The cartilage punches were digested with papain at 65° C. for 2 h in phosphate buffer (0.05M pH 6.5 with 2 mM N-acetil-L-cisteine and 2 mM EDTA).
The glycosaminoglycan (GAG) determination was done by a colorimetric assay with 1,9 dimethyl methylene blue (DMB).
Digested cartilage samples were diluted in PBS-BSA 1%. To 100 μl of diluted samples or standard we added 100 μl DMB 2X. After 5-20 min incubation the samples were read at 590 nm (Titertek Multiscan Plus).
The cartilage degradation induced by IL-1α was expressed as: GAG (medium)/total GAG (medium+cartilage)×100

IL-1β = assay: Gene expression in rat articular chondrocytes under IL-1β stimulation, IL-1β; assay type: cell-based; conditions: for IC50: Rattus norvegicus, Chondrocyte, 6 h incubation; for IL-1β gene expression, percentage of inhibitory effect at the highest non toxic concentration: 6 h
Description: as §1, §2, §3, §4, §5, §6, §7, §8, §9

COX2 = assay: Gene expression in rat articular chondrocytes under IL-1β stimulation, COX2; assay type: cell-based; conditions: for COX2 gene expression, percentage of inhibitory effect at the highest non toxic concentration: 24 h
[2] = tested on: rat primary articular chondrocytes; assay: Toxicity analysis (MTT) in rat primary chondrocytes; conditions: for First toxic concentration at 24 h: rat primary chondrocytes
MMP3 = assay: Gene expression in rat articular chondrocytes under IL-1β stimulation, MMP3; assay type: cell-based; design: key to MMP3 gene expression, no effect: ne: no effect; conditions: for MMP3 gene expression, no effect: 24 h; for IC50: Rattus norvegicus, Chondrocyte, 24 h incubation
Description: as §1, §2, §3, §4, §5, §6, §7, §8, §9

MMP13 = assay: Gene expression in rat articular chondrocytes under IL-1β stimulation, MMP13; assay type: cell-based; design: key to MMP13 gene expression, no effect: ne: no effect
Description: as §1, §2, §3, §4, §5, §6, §7, §8, §9

IL-6 = assay: Gene expression in rat articular chondrocytes under IL-1β stimulation, IL-6; assay type: cell-based; conditions: for IC50: Rattus norvegicus, Chondrocyte, 6 h incubation; for IL-6 gene expression, percentage of inhibitory effect at the highest non toxic concentration: 6 h
Description: as §1, §2, §3, §4, §5, §6, §7, §8, §9

Fyn = Fyn (Homo sapiens (Human), UniProt P06241); assay: Z′-LYTE in vitro Fyn kinase activity assay; assay type: biochemical; conditions: ATP 50 μM; read-out: FYN KINASE INHIBITION IC50
Description: The Fyn kinase inhibitory activity of representative examples of compounds of Formula (1) was evaluated by Z′-LYTE™ Kinase Assay Platform (Invitrogen). Compounds were evaluated towards active Fyn (full length active, molecular weight 87.1 kDa; Invitrogen). […] Samples representing the 0% inhibition (or total enzymatic activity) were in the presence of compound diluent (1% DMSO final in Reaction Buffer 50 mMHepes, 10 mM MgCl2, 1 mM EGTA, 0.01% Brij-35, pH 7.5). The kinase reaction was carried out in a total volume of 10 μl, for 60 minutes at 25° C. The 0% Phosphorylation (i.e. no ATP) and 100% Phosphorylation Assay Controls, included in each plate, allowed to calculate the percent phosphorylation achieved in the specific reaction well. Results are expressed as percentage of inhibition and the IC50 values were calculated by non-linear curve fitting using GraphPad™ Prism software (version 6 for Windows).

VEGFR2 = VEGFR2 (Homo sapiens (Human), UniProt P35968); assay: In vitro VEGFR2 kinase activity assay (Eurofins Cerep); assay type: biochemical; conditions: read-out: VEGFR2 KINASE INHIBITION IC50
Description: The VEGFR2 kinase inhibitory activity of representative examples of compounds of Formula (I) assays was evaluated in Eurofins Cerep (France). The concentration range of the inhibitors under investigation was from 10^−8 M up to 10^−5 M final concentration. Some compounds were re-tested in a concentration-range starting from 10^−9 M. The results are expressed as a percent of control activity (in the absence of test compound) and the IC50 values were determined by non-linear regression analysis of the inhibition/concentration curves generated with mean replicate values.

[3] = Rattus norvegicus, Chondrocyte, 24 h incubation

Sequence of VEGFR2 (P35968 20-1356): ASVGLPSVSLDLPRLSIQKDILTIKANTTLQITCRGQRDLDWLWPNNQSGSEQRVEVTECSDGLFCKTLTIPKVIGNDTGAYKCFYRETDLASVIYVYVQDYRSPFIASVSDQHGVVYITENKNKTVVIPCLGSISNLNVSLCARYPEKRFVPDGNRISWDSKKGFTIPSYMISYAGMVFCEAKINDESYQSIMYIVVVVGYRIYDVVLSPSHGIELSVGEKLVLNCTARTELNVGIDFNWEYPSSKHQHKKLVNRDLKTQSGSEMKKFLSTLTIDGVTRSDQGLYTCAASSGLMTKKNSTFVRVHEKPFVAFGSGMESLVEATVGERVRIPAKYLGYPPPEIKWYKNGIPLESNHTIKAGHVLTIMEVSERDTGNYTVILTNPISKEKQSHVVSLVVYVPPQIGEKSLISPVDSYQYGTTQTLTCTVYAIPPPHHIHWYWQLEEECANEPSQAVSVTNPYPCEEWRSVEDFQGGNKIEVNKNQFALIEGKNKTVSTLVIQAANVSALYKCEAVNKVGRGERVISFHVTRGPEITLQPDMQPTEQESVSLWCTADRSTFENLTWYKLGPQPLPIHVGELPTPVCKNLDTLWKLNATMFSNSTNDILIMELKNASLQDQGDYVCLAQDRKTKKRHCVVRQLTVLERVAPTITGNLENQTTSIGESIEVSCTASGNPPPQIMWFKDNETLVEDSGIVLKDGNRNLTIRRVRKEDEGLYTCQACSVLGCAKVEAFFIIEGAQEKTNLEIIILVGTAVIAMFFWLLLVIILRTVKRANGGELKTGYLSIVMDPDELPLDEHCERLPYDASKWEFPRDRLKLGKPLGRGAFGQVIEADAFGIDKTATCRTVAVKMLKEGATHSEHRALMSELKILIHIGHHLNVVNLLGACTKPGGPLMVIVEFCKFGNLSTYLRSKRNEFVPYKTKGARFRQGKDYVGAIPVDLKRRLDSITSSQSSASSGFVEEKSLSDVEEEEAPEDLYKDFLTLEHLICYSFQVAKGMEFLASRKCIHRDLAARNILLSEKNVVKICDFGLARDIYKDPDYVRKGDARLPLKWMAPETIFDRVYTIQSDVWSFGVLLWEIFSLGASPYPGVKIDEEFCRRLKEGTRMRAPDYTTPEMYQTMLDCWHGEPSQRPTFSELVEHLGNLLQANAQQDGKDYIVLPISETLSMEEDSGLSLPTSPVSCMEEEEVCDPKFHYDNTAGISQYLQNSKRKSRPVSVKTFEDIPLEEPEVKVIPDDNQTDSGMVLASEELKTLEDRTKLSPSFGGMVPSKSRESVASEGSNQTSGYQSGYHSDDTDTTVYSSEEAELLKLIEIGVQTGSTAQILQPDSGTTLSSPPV
Sequence of Fyn (P06241 whole entry): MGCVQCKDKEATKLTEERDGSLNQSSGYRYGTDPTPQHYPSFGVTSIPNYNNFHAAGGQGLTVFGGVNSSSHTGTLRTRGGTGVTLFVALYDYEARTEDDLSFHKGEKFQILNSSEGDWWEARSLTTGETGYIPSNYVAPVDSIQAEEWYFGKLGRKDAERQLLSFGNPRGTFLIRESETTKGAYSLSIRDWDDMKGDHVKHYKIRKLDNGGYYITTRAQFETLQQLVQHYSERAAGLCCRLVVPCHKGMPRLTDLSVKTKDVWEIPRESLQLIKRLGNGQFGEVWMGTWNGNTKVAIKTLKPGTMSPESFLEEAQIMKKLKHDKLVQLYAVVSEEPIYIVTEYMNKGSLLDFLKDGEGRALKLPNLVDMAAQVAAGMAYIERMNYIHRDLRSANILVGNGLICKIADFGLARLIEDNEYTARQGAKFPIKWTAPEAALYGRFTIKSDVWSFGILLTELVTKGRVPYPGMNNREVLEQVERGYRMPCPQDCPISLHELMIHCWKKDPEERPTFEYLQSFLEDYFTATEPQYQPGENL

SMILES | IC50 (NF-kB; Mus musculus, JB6 Cl 41-5a) | IC50 (IL-1β) | First toxic concentration at 24 h [2] | MMP3 gene expression, no effect (MMP3) | IC50 (Fyn) | COX2 gene expression, percentage of inhibitory effect at the highest non toxic concentration (COX2; 1 μM) | IC50 (VEGFR2) | other results
Cc1ccc(NC(=O)c2cccc(S(C)(=O)=O)c2)cc1CCc1cc(Nc2cnccn2)[nH]n1 [Compound 1, N-(4-methyl-3-(2-(5-(pyrazin-2-ylamino)-1H-pyrazol-3-yl)ethyl)phenyl)-3-(methylsulfonyl)benzamide] | 5080 nM | 2100 nM | >10 µM | ne |  |  |  | ADAMTS-5 gene expression, percentage of inhibitory effect at the highest non toxic concentration (ADAMTS-5; 10 μM, 6 h): 10 μM 38%; inhibition at 3 µM ([1]; 3 μM): 88%; IC50 (COX2; [3]): 3100 nM; First toxic concentration at 48 h in rat primary chondrocytes [2]: 10 µM; MMP13 gene expression, percentage of inhibitory effect at the highest non toxic concentration (MMP13; 10 μM, 24 h): 10 μM 38%; IC50 (IL-6): 1600 nM
Cc1ccc(NC(=O)c2cc(C(F)(F)F)ccc2F)cc1CCc1cc(Nc2cnccn2)[nH]n1 [Compound 7, 2-fluoro-N-(4-methyl-3-(2-(5-(pyrazin-2-ylamino)-1H-pyrazol-3-yl)ethyl)phenyl)-5-(trifluoromethyl)benzamide] | 1160 nM | 100 nM | 3 µM | ne | 63 nM | 1 μM 41% | < 10 nM | ADAMTS-5 gene expression, percentage of inhibitory effect at the highest non toxic concentration (ADAMTS-5; 1 μM, 6 h): 1 μM 81%; MMP13 gene expression, percentage of inhibitory effect at the highest non toxic concentration (MMP13; 1 μM, 24 h): 1 μM 38%; IC50 (IL-6): 200 nM
Cc1ccc(NC(=O)c2cc(S(=O)(=O)C3CC3)ccn2)cc1CCc1cc(Nc2cnccn2)[nH]n1 [Compound 8, 4-(cyclopropylsulfonyl)-N-(4-methyl-3-(2-(5-(pyrazin-2-ylamino)-1H-pyrazol-3-yl)ethyl)phenyl)picolinamide] | < 250 nM | 300 nM | 3 µM | ne | 20 nM | 1 μM 63% | < 10 nM | IC50 (NF-kB): 233 nM; ADAMTS-5 gene expression, no effect (ADAMTS-5; 6 h): ne; MMP13 gene expression, no effect (MMP13; 24 h): ne; IL-6 gene expression, percentage of inhibitory effect at the highest non toxic concentration (IL-6; 1 μM): 1 μM 99%
Cc1nc(C#N)cc(Nc2cc(CCc3cc(NC(=O)c4ccc(CN(C)C)c(C(F)(F)F)c4)ccc3F)n[nH]2)n1 [Compound 39, N-(3-(2-(5-((6-cyano-2-methylpyrimidin-4-yl)amino)-1H-pyrazol-3-yl)ethyl)-4-fluorophenyl)-4-((dimethylamino)methyl)-3-(trifluoromethyl)benzamide] | 1060 nM |  | 10 µM |  | 1 nM |  | 11 nM | IC50 (ADAMTS-5): 500 nM; IL-1β gene expression, percentage of inhibitory effect at the highest non toxic concentration (IL-1β; 3 μM): 3 μM 100%; COX2 gene expression, percentage of inhibitory effect at the highest non toxic concentration (COX2; 3 μM): 3 μM 99%; IC50 (MMP3): 1200 nM; MMP13 gene expression, percentage of inhibitory effect at the highest non toxic concentration (MMP13; 3 μM, 24 h): 3 μM 90%; IL-6 gene expression, percentage of inhibitory effect at the highest non toxic concentration (IL-6; 3 μM): 3 μM 100%
Cc1nc(Nc2cc(CCc3ccc(F)c(NC(=O)c4cccc(C(F)(F)F)c4)c3)n[nH]2)cc(N2CCOCC2)n1 [Compound 43, N-(2-fluoro-5-(2-(5-((2-methyl-6-morpholinopyrimidin-4-yl)amino)-1H-pyrazol-3-yl)ethyl)phenyl)-3-(trifluoromethyl)benzamide] | 2440 nM |  |  |  | 19 nM |  | 10 nM | 
CN(C)Cc1ccc(C(=O)Nc2cccc(CCc3cc(NC(=O)c4ccc(N5CCOCC5)cc4)[nH]n3)c2)cc1 [Compound 47, 4-((dimethylamino)methyl)-N-(3-(2-(5-(4-morpholinobenzamido)-1H-pyrazol-3-yl)ethyl)phenyl)benzamide] |  |  |  |  | 10 nM |  | 10 nM | Gene reporter (GR) inhibition, no effect (NF-kB): ne
Cc1ccc(NC(=O)c2cccc(C(F)(F)F)c2)cc1CCc1cnc(Nc2cnccn2)s1 [Compound 49, N-(4-methyl-3-(2-(2-(pyrazin-2-ylamino)thiazol-5-yl)ethyl)phenyl)-3-(trifluoromethyl) benzamide] | 422 nM |  | 3 µM |  | 143 nM | 1 μM 93% |  | IC50 (ADAMTS-5): 200 nM; inhibition at 1 µM ([1]; 1 μM): 35%; IL-1β gene expression, percentage of inhibitory effect at the highest non toxic concentration (IL-1β; 1 μM): 1 μM 91%; First toxic concentration at 48 h in rat primary chondrocytes [2]: 3 µM; IC50 (MMP3): 500 nM; IC50 (MMP13; [3]): 240 nM; IL-6 gene expression, percentage of inhibitory effect at the highest non toxic concentration (IL-6; 1 μM): 1 μM 100%
